Assay results taken from patent US8372617B2, “β-galactoside-α2,6-sialyltransferase, a gene encoding thereof, and a method for enhancing enzyme activity” (Japan Tobacco Inc., priority 2007, dated 2013).

Assays:
[1] = test system: recombinant β-galactoside-α2,6-sialyltransferase N1C0; test: Glycosyl acceptor substrate specificity, monosaccharides and disaccharides; type: biochemical, Photobacterium leiognathi; settings: for % (nmol), relative activity toward acceptor substrate: sialyltransferase activity toward lactose set to 100; for transfer of sialic acid to acceptor substrate: 11 monosaccharides and disaccharides tested
From the text: The purified enzyme prepared in Example 3 for JT-SHIZ-145-derived recombinant β-galactoside-α2,6-sialyltransferase N1C0 (SEQ ID NO: 4) was used to cause sialic acid transfer reaction in various monosaccharides/disaccharides as glycosyl acceptor substrates. The reaction was accomplished as described in J. Biochem., 120, 104-110 (1996). The monosaccharides used as glycosyl acceptor substrates were the following 8 types: methyl-α-D-galactopyranoside (Gal-α-OMe), methyl-β-D-galactopyranoside (Gal-β-OMe), methyl-α-D-glucopyranoside (Glc-α-OMe), methyl-β-D-glucopyranoside (Glc-β-OMe), methyl-α-D-mannopyranoside (Man-α-OMe), methyl-β-D-mannopyranoside (Man-β-OMe), N-acetylgalactosamine (GalNAc), and N-acetylglucosamine (GlcNAc). The disaccharides used were the following 3 types: lactose (Gal-β1,4-Glc), N-acetyllactosamine (Gal-β1,4-GlcNAc) and Gal-β1,3-GalNAc.
It should be noted that the relative activity toward each acceptor substrate was calculated assuming that the sialyltransferase activity toward lactose was set to 100.

[2] = test system: recombinant β-galactoside-α2,6-sialyltransferase N1C0
Procedure: Using a crude enzyme solution, enzyme activity was measured in a reaction solution adjusted to contain calcium chloride and/or EDTA at a final concentration of 10 mM for calcium ion and 50 mM for EDTA.

[3] = test system: recombinant β-galactoside-α2,6-sialyltransferase N1C0; test: Effect of addition of various salts (complex ions, Na+/K+) on enzyme activity; type: biochemical, Photobacterium leiognathi; settings: anion concentration 0.1 M in Tris-HCl, 30° C.; compared to absence of addition
Procedure: Aqueous solutions were prepared for potassium nitrate (KNO3), sodium nitrate (NaNO3), potassium sulfate (K2SO4), sodium sulfate (Na2SO4), sodium dihydrogen phosphate (NaH2PO4), disodium hydrogen phosphate (Na2HPO4) and potassium phosphate (KH2PO4+K2HPO4 (abbreviated as KPB)). These aqueous solutions were each adjusted with Tris-HCl buffer to give an anion concentration of 0.1 M in the reaction solution at 30° C., and used for enzyme activity measurement.
It should be noted that enzyme activity in the reaction solution upon addition of each solution was evaluated as relative activity, assuming that the enzyme activity in the absence of addition (i.e., in Tris-HCl alone) was set to 1.

[4] = test system: β-galactoside-α2,6-sialyltransferase from the strain JT-SHIZ-145; test: Sialyltransferase activity measurement of crude enzyme solution from E. coli transformed with SHIZ145-N1C0/pTrc99A (14C CMP-NeuAc donor, lactose acceptor); type: biochemical, Photobacterium leiognathi; settings: insert +, 120 mM lactose, 0.5 M NaCl, 30° C. for 30 minutes
Procedure: Among the two expression vectors obtained above, SHIZ145-N1C0/pTrc99A was used to perform an induction experiment of protein expression. A single colony of E. coli TB1 having the expression vector pTrc99A carrying the SHIZ145-N1C0 clone (SEQ ID NO: 3) was inoculated into LB medium (6 ml) containing an antibiotic, ampicillin (final concentration […]), and pre-cultured at 30° C. to about A600=0.5, followed by addition of IPTG (isopropyl-β-D(−)-thiogalactopyranoside, Wako Pure Chemical Industries, Ltd., Japan) at a final concentration of 1 mM to initiate expression induction. After culturing overnight with shaking at 30° C., the cells in 2 ml culture solution were collected by centrifugation. These cells were suspended in 400 μl of 20 mM Bis-Tris buffer (pH 6.0) containing 0.336% Triton X-100, and ultrasonically homogenized under ice cooling. The resulting homogenate was defined as a crude enzyme solution and provided for sialyltransferase activity measurement. Measurement was accomplished as described in J. Biochem., 120, 104-110 (1996) (hereby incorporated by reference in its entirety). […] Radioactivity was measured for the reaction product, i.e., sialyllactose contained in the eluate from the column to calculate the enzyme activity.

[5] = test system: β-galactoside-α2,6-sialyltransferase; test: Binding mode of sialic acid: reaction with PA-lactose and CMP-NeuAc, HPLC analysis; type: biochemical, Photobacterium leiognathi; settings: pyridylaminated lactose as glycosyl acceptor
Procedure: To determine the binding mode of sialic acid, a reaction using PA-lactose as a substrate was then performed. The enzymatic reaction was accomplished by using the resulting crude enzyme solution and a pyridylaminated sugar chain as a glycosyl acceptor substrate. The pyridylaminated sugar chain used for analysis was pyridylaminated lactose (Galβ1-4Glc-PA, Takara Bio Inc., Japan). To 5 μl of the crude enzyme solution, 1.5 μl of 5 mM CMP-NeuAc and 1.5 μl of 10 pmol/μl glycosyl acceptor substrate were added and reacted at 25° C. for 18 hours. After completion of the reaction, the reaction solution was treated at 100° C. for 2 minutes to inactivate the enzyme, followed by HPLC to analyze the reaction product. The HPLC system used was Shimadzu LC10A (Shimadzu Corporation, Japan) and the analytical column used was Takara PALPAK Type R (Takara Bio Inc., Japan). […] The analysis was performed under the following conditions: flow rate: 1 ml/min, column temperature: 40° C., detection: fluorescence (Ex: 320 nm, Em: 400 nm).
Further analysis was performed to examine whether sialyltransferase expressed by E. coli cells transformed in (5) above with SHIZ145-N1C0/pTrc99A had β-galactoside-α2,6-sialyltransferase activity. […] As a result, PA-6′-sialyllactose (Neu5Acα2-6Galβ1-4Glc-PA) was detected, as in the case of Example 1.

[6] = test system: recombinant β-galactoside-α2,6-sialyltransferase N1C0; test: Optimum temperature for enzyme activity; type: biochemical, Photobacterium leiognathi; settings: phosphate buffer (pH 8.0), 10° C. up to 50° C.
Procedure: The enzyme activity was measured at an interval of 5° C. starting from 10° C. up to 50° C. using phosphate buffer (pH 8.0).
As a result, as shown in FIG. 2-2, the enzyme activity was maximum at 30° C. It should be noted that enzyme activity at each temperature was evaluated as relative activity, assuming that the enzyme activity at 30° C. was set to 100.

[7] = test system: recombinant β-galactoside-α2,6-sialyltransferase N1C0; test: Optimum pH for enzyme activity; type: biochemical, Photobacterium leiognathi; settings: phosphate buffer, 30° C.
Procedure: Acetate buffer (pH 4-5), cacodylate buffer (pH 5-6), Bis-Tris buffer (pH 6-7), phosphate buffer (pH 6-9.5), Tris-HCl buffer (pH 7-9.5), TAPS buffer (pH 8-9), CHES buffer (pH 9-10) and CAPS buffer (pH 10-11) were prepared and used for enzyme activity measurement at 30° C. at various pH values.
It should be noted that enzyme activity at each pH was evaluated as relative activity, assuming that the enzyme activity at pH 8.0 in phosphate buffer was set to 1.

| Molecule | % (nmol), relative activity toward acceptor substrate [1] [%] | transfer of sialic acid to acceptor substrate [1] | further results |
| --- | --- | --- | --- |
| CO[C@H]1O[C@H](CO)[C@H](O)[C@H](O)[C@H]1O [Gal-α-OMe, methyl-α-D-galactopyranoside] | 2 | – | – |
| CC(=O)N[C@H]1C(O)O[C@H](CO)[C@H](O)[C@@H]1O[C@@H]1O[C@H](CO)[C@H](O)[C@H](O)[C@H]1O (stereo partly drawn) [Gal-β1,3-GalNAc] | 71 | efficiently transferred | – |
| OC[C@H]1O[C@@H](O[C@H]2[C@H](O)[C@@H](O)C(O)O[C@@H]2CO)[C@H](O)[C@@H](O)[C@H]1O (stereo partly drawn) [Gal-β1,4-Glc, lactose] | 100 | efficiently transferred | – |
| CC(=O)N[C@H]1C(O)O[C@H](CO)[C@@H](O[C@@H]2O[C@H](CO)[C@H](O)[C@H](O)[C@H]2O)[C@@H]1O (stereo partly drawn) [Gal-β1,4-GlcNAc, N-acetyllactosamine] | 205 | efficiently transferred | – |
| CO[C@@H]1O[C@H](CO)[C@H](O)[C@H](O)[C@H]1O [Gal-β-OMe, methyl-β-D-galactopyranoside] | 59 | efficiently transferred | – |
| CC(=O)N[C@H]1C(O)O[C@H](CO)[C@H](O)[C@@H]1O (stereo partly drawn) [GalNAc, N-acetylgalactosamine] | 35 | efficiently transferred | – |
| CO[C@H]1O[C@H](CO)[C@@H](O)[C@H](O)[C@H]1O [Glc-α-OMe, methyl-α-D-glucopyranoside] | 0 | – | – |
| CO[C@@H]1O[C@H](CO)[C@@H](O)[C@H](O)[C@H]1O [Glc-β-OMe, methyl-β-D-glucopyranoside] | 0 | – | – |
| CC(=O)N[C@H]1C(O)O[C@H](CO)[C@@H](O)[C@@H]1O (stereo partly drawn) [GlcNAc, N-acetylglucosamine] | 6 | – | – |
| CO[C@H]1O[C@H](CO)[C@@H](O)[C@H](O)[C@@H]1O [Man-α-OMe, methyl-α-D-mannopyranoside] | 0 | – | – |
| CO[C@@H]1O[C@H](CO)[C@@H](O)[C@H](O)[C@@H]1O [Man-β-OMe, methyl-β-D-mannopyranoside] | 0 | – | – |
| [Ca+2].[Cl-].[Cl-] [calcium ion, calcium chloride] | – | – | enzyme activity with calcium ion together with EDTA ([2]; 10 mM calcium ion and 50 mM EDTA): almost the same level as in the absence of calcium ion; enzyme activity in the presence of calcium ion ([2]; 10 mM calcium ion, compared to absence of calcium ion): remarkably increased |
| O=P([O-])([O-])O.[Na+].[Na+] [disodium hydrogen phosphate] | – | – | effect of addition on enzyme activity [3]: maximum |
| potassium phosphate (KH2PO4+K2HPO4 (abbreviated as KPB)) [potassium phosphate (KPB)] | – | – | effect of addition on enzyme activity [3]: maximum |
| SHIZ145-N1C0: β-galactoside-α2,6-sialyltransferase from strain JT-SHIZ-145 lacking the amino acids of the signal peptide region, expressed in E. coli (protein) MCNDNQNTVDVVVSTVNDNVIENNTYQVKPIDTPTTFDSYSWIQTCGTPILKDDEKYSLSFDFVAPELDQDEKFCFEFTGDVDGKRYVTQTNLTVVAPTLEVYVDHASLPSLQQLMKIIQQKNEYSQNERFISWGRIRLTEDNAEKLNAHIYPLAGNNTSQELVDAVIDYADSKNRLNLELNTNTGHSFRNIAPILRATSSKNNILISNINLYDDGSAEYVSLYNWKDTDNKSQKLSDSFLVLKDYLNGISSEKPNGIYSIYNWHQLYHSSYYFLRKDYLTVETKLHDLREYLGGSLKQMSWDTFSQLSKGDKELFLNIVGFDQEKLQQEYQQSELPNFVFTGTTTWAGGETKEYYAQQQVNVVNNAINETSPYYLGREHDLFFKGHPRGGIINDIILGSFNNMIDIPAKVSFEVLMMTGMLPDTVGGIASSLYFSIPAEKVSFIVFTSSDTITDREDALKSPLVQVMMTLGIVKEKDVLFWC | – | – | NeuAc transferred (cpm) [4]: 8326 cpm; PA-6′-sialyllactose (Neu5Acα2-6Galβ1-4Glc-PA) product [5]: detected; temperature at which the enzyme activity was maximum [6]: 30 °C; pH at which the enzyme activity reached maximum [7]: 8.0 |
